Laboratory results as given in US20030114492A1, “Method of using neurotrophic sulfonamide compounds” (priority 1997, published 2003).

Experiments:
[1] = test system: TH-positive dopaminergic neurons in the striatum; test: MPTP model of Parkinson's Disease, TH immunostaining of striatum; type: in vivo; conditions: MPTP-lesioned CD1 mice (30 mg/kg i.p. for 5 days), compound 4 mg/kg s.c. for 10 days, striatum at 18 days
Protocol: MPTP lesioning of dopaminergic neurons in mice was used as an animal model of Parkinson's Disease. Four week old male CD1 white mice were dosed i.p. with 30 mg/kg of MPTP for 5 days. Test compounds (4 mg/kg), or vehicle, were administered s.c. along with the MPTP for 5 days, as well as for an additional 5 days following cessation of MPTP treatment. At 18 days following MPTP treatment, the animals were sacrificed and the striata were dissected and perfusion-fixed. Immunostaining was performed on saggital and coronal brain sections using anti-tyrosine hydroxylase […] to quantitate survival and recovery of dopaminergic neurons. In animals treated with MPTP and vehicle, a substantial loss of functional dopaminergic terminals was observed as compared to non-lesioned animals.

[2] = test system: chick dorsal root ganglia; test: Chick dorsal root ganglion cultures and neurite outgrowth; type: cell-based; conditions: Gallus gallus, 48 h; read-out: ED50 (the source's name)
Protocol: Dorsal root ganglia were dissected from chick embryos of ten day gestation. Whole ganglion explants were cultured on thin layer Matrigel-coated 12 well plates with Liebovitz L15 plus high glucose media supplemented with 2 mM glutamine and 10% fetal calf serum, and also containing 10 μM cytosine β-D arabinofuranoside (Ara C) at 37° C. in an environment containing 5% CO2. Twenty-four hours later, the DRGs were treated with various immunophilin ligands. Forty-eight hours after drug treatment, the ganglia were visualized under phase contrast or Hoffman Modulation contrast with a Zeiss Axiovert inverted microscope. Photomicrographs of the explants were made, and neurite outgrowth was quantitated. Neurites longer than the DRG diameter were counted as positive, with total number of neurites quantitated per each experimental condition. Three to four DRGs are cultured per well, and each treatment was performed in duplicate.
The data for these experiments for representative compounds are presented in the “ED50” column of Table I.

[3] = biological target: FKBP12 (Homo sapiens, UniProt P62942); test: Ki test procedure: inhibition of peptidyl-prolyl isomerase (rotamase) activity, chymotrypsin-coupled assay; type: biochemical; conditions: apparent Ki, rotamase activity of FKBP, substrate N-succinyl-Ala-Ala-Pro-Phe-p-nitroanilide
Description: The inhibition of the prolyl peptidyl cis-trans isomerase activity of FKBP may be measured as an indicator of this affinity.
Inhibition of the peptidyl-prolyl isomerase (rotamase) activity of the inventive compounds can be evaluated by known methods described in the literature (Harding, et al., Nature, 1989, 341:758-760; Holt et al. J. Am. Chem. Soc., 115:9923-9938). These values are obtained as apparent Ki's and are presented in Table I. The cis-trans isomerization of an alanine-proline bond in a model substrate, N-succinyl-Ala-Ala-Pro-Phe-p-nitroanilide, is monitored spectrophotometrically in a chymotrypsin-coupled assay, which releases para-nitroanilide from the trans form of the substrate. The inhibition of this reaction caused by the addition of different concentrations of inhibitor is determined, and the data is analyzed as a change in first-order rate constant as a function of inhibitor concentration to yield the apparent Ki values.
In a plastic cuvette are added […] of ice cold assay buffer (25 mM HEPES, pH 7.8, 100 mM NaCl), […] of FKBP (2.5 mM in 10 mM Tris-Cl pH 7.5, 100 mM NaCl, 1 mM dithiothreitol), […] of chymotrypsin (50 mg/ml in 1 mM HCl) and […] of test compound at various concentrations in dimethyl sulfoxide. The reaction is initiated by the addition of 5 mL of substrate (succinyl-Ala-Phe-Pro-Phe-para-nitroanilide, 5 mg/mL in 2.35 mM LiCl in trifluoroethanol).
The absorbance at 390 nm versus time is monitored for 90 seconds using a spectrophotometer and the rate constants are determined from the absorbance versus time data files.

Chain of FKBP12 (P62942 whole entry, species assumed): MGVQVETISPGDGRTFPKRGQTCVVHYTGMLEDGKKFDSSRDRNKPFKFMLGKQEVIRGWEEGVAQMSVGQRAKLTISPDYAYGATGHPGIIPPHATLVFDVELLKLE

Row | Ki [3] [nM] | Structure (SMILES) | % Rescue, TH Immunostaining at 4 mg/kg, s.c. [1] [%] | EC50 [2] [nM]
1 |  | O=C(OCCCCc1ccccc1)C1CCCCN1S(=O)(=O)c1ccccc1 (stereo not drawn) [4-phenyl-1-butyl-N-(benzenesulfonyl) pipecolate] | 29.22 | 
2 | 72 | O=C(OCCCc1cccnc1)[C@@H]1CCCN1S(=O)(=O)Cc1ccccc1 [Compound 1, 3-(3-Pyridyl)-1-propyl(2S)-N-(α-toluenesulfonyl)pyrrolidine-2-carboxylate] | 44.31 | 0.002
3 | 34 | O=C(OCCCCc1ccccc1)C1CCCCN1S(=O)(=O)Cc1ccccc1 (stereo not drawn) [Compound 2, 4-Phenyl-1-butyl 1-(α-tolylsulfonyl)-2-pipecolinate] | 38.00 | 0.031
4 | 107 | O=C(OC(CCc1ccccc1)CCc1ccccc1)C1CCCCN1S(=O)(=O)Cc1ccccc1 (stereo not drawn) [Compound 3, 1,5-Diphenyl-3-pentyl N-(α-toluenesulfonyl)-pipecolate] |  | 0.133
